The test system of data set [1] is Mycobacterium tuberculosis. The data set can be described thus: Antitubercular activity against Mycobacterium tuberculosis H37Rv assessed as reduction in microbial growth after 7 to 14 days by broth dilution method. It is filed as functional. The following applies: time 7-14 day. (In broth dilution the organism is exposed to a series of concentrations in liquid medium.)

Data set [2] deals with RAW264.7. The data set can be described thus: Cytotoxicity against mouse RAW264.7 cells assessed as reduction in cell viability up to 24 hrs by MTT assay. The following applies: RAW264.7, 24 h. The data set is classed as cell-based. A general note: Formazan colour is commonly taken as a measure of viable cells.
Data set [3] is described as follows: Selectivity index ratio of IC50 for cytotoxicity against mouse RAW264.7 cells to MIC90 for antitubercular activity against Mycobacterium tuberculosis H37Rv. The data set is classed as toxicity, cell-based. The following applies: read-out: Selectivity Index.

This is an account of results in ChEMBL document CHEMBL4715892, “Synthesis of novel quinoxaline-alkynyl derivatives and their anti-Mycobacterium tuberculosis activity” (Bioorg Med Chem Lett, 2021).

Broadly, the MIC90 is the lowest concentration that inhibits either 90% of growth or 90% of the strains tested, depending on the study. In general, IC50 refers to the concentration needed to halve the response being measured. For the compound `O=C(OCC#Cc1cnc2cc(Cl)ccc2n1)c1cccs1`, the MIC90 in data set [1] is 11.2 µM. For the same compound, in data set [2], the half-inhibitory concentration (IC50) amounted to 11.3 µM. For the same compound, the selectivity ratio in data set [3] turned out to be 1.

Turning to `O=C(OCC#Cc1cnc2cc([N+](=O)[O-])ccc2n1)c1cccs1`, the MIC90 in data set [1] came out at 2.74 µM. In addition, the half-maximal inhibitory concentration (IC50) in data set [2] was 19.9 µM. For the same compound, the selectivity ratio in data set [3] amounted to 7.24.

As for `CC(=O)OCC#Cc1cnc2cc([N+](=O)[O-])ccc2n1`, the MIC90 in data set [1] worked out at 1.8 µM. In addition, the 50% inhibitory concentration (IC50) in data set [2] was found to be 13.2 µM. In addition, in data set [3], the selectivity ratio was 7.3.

On to `OCC#Cc1cnc2cc(Cl)ccc2n1`, for which the MIC90 in data set [1] stood at 15.9 µM. Moreover, the IC50 in data set [2] was 35.3 µM. In data set [3], the selectivity ratio came out at 2.22.

On to `O=C(OCC#Cc1cnc2ccccc2n1)c1ccccc1`, for which, in data set [1], the MIC90 was 16.2 µM. Further, the half-maximal inhibitory concentration (IC50) in data set [2] amounted to 55.6 µM. Besides, the selectivity ratio in data set [3] came out at 3.4.

As to `O=CC#Cc1cnc2ccccc2n1`, the MIC90 in data set [1] is 4.55 µM. Further, the IC50 in data set [2] was 316 µM. Moreover, in data set [3], the selectivity ratio came out at 69.5.

Take `CS(=O)(=O)OCC#Cc1cnc2cc(Cl)ccc2n1`: in data set [1], the MIC90 worked out at 54.5 µM.

On to `CC(=O)OCC#Cc1cnc2cc(Cl)ccc2n1`, for which the MIC90 in data set [1] was 16.5 µM. The IC50 in data set [2] was 20.2 µM. Also, the selectivity ratio in data set [3] came to 1.22.

Turning to `O=C(OCC#Cc1cnc2cc([N+](=O)[O-])ccc2n1)c1ccccc1`, in data set [1], the MIC90 is 93.8 µM. In data set [2], the IC50 was determined as 248 µM. In addition, in data set [3], the selectivity ratio was 2.6.

Take `O=C(OCC#Cc1cnc2ccccc2n1)c1cccs1`: the MIC90 in data set [1] is 27 µM. Further, the IC50 in data set [2] worked out at 39 µM. Further, the selectivity ratio in data set [3] is 1.44.

With `CC(=O)OCC#Cc1cnc2ccccc2n1`, the MIC90 in data set [1] was determined as 18.1 µM. Further, the IC50 in data set [2] worked out at 47.7 µM. Moreover, the selectivity ratio in data set [3] came out at 2.64.

As for `CS(=O)(=O)OCC#Cc1cnc2ccccc2n1`, the MIC90 in data set [1] was determined as 6.47 µM. For the same compound, in data set [2], the IC50 turned out to be 36.8 µM. The selectivity ratio in data set [3] was determined as 5.7.

As to `O=C(OCC#Cc1cnc2cc(Cl)ccc2n1)c1ccccc1`, the MIC90 in data set [1] was 57.6 µM. For the same compound, the concentration for half-maximal inhibition (IC50) in data set [2] was 82.3 µM. Further, the selectivity ratio in data set [3] turned out to be 1.43.

With `O=CC#Cc1cnc2cc(Cl)ccc2n1`, the MIC90 in data set [1] came out at 1.13 µM. The half-maximal inhibitory concentration (IC50) in data set [2] turned out to be 4.6 µM. In data set [3], the selectivity ratio came out at 4.1.

On to `O=[N+]([O-])c1ccc2nc(C#CCO)cnc2c1`, for which, in data set [1], the MIC90 was found to be 4.26 µM. Moreover, the 50% inhibitory concentration (IC50) in data set [2] is 31.2 µM. In addition, the selectivity ratio in data set [3] turned out to be 7.3.

As to `CS(=O)(=O)OCC#Cc1cnc2cc([N+](=O)[O-])ccc2n1`, the MIC90 in data set [1] is 1.59 µM. Besides, in data set [2], the IC50 was 13.5 µM. In addition, the selectivity ratio in data set [3] turned out to be 8.5.

Take `OCC#Cc1cnc2ccccc2n1`: the MIC90 in data set [1] turned out to be 52.7 µM. The IC50 in data set [2] came out at 43.7 µM. In addition, the selectivity ratio in data set [3] is 0.83.

On to `CO[C@H]1/C=C/O[C@@]2(C)Oc3c(C)c(O)c4c(O)c(c(/C=N/N5CCN(C)CC5)c(O)c4c3C2=O)NC(=O)/C(C)=C\C=C\[C@H](C)[C@H](O)[C@@H](C)[C@@H](O)[C@@H](C)[C@H](OC(C)=O)[C@@H]1C` [RIFAMPIN], for which the MIC90 in data set [1] was determined as 0.01 µM.
